According to US20110160223A1, “NMDA Receptor Antagonists for the Treatment of Neuropsychiatric Disorders” (priority 2008, published 2011):
Where two headings read alike, the source gives them in different places. One block for each compound: values may come before it.

Experiments:
[1] = target: NMDA receptor (NR1 + NR2 subunits) (Rattus norvegicus, UniProt P35439+Q00960); experiment: Two electrode voltage clamp recording from Xenopus laevis oocytes (pH dependence of NMDA antagonism); assay type: cell-based
Sequence of NMDA receptor (NR1 + NR2 subunits) (Q00960 27-1482, other chains not shown): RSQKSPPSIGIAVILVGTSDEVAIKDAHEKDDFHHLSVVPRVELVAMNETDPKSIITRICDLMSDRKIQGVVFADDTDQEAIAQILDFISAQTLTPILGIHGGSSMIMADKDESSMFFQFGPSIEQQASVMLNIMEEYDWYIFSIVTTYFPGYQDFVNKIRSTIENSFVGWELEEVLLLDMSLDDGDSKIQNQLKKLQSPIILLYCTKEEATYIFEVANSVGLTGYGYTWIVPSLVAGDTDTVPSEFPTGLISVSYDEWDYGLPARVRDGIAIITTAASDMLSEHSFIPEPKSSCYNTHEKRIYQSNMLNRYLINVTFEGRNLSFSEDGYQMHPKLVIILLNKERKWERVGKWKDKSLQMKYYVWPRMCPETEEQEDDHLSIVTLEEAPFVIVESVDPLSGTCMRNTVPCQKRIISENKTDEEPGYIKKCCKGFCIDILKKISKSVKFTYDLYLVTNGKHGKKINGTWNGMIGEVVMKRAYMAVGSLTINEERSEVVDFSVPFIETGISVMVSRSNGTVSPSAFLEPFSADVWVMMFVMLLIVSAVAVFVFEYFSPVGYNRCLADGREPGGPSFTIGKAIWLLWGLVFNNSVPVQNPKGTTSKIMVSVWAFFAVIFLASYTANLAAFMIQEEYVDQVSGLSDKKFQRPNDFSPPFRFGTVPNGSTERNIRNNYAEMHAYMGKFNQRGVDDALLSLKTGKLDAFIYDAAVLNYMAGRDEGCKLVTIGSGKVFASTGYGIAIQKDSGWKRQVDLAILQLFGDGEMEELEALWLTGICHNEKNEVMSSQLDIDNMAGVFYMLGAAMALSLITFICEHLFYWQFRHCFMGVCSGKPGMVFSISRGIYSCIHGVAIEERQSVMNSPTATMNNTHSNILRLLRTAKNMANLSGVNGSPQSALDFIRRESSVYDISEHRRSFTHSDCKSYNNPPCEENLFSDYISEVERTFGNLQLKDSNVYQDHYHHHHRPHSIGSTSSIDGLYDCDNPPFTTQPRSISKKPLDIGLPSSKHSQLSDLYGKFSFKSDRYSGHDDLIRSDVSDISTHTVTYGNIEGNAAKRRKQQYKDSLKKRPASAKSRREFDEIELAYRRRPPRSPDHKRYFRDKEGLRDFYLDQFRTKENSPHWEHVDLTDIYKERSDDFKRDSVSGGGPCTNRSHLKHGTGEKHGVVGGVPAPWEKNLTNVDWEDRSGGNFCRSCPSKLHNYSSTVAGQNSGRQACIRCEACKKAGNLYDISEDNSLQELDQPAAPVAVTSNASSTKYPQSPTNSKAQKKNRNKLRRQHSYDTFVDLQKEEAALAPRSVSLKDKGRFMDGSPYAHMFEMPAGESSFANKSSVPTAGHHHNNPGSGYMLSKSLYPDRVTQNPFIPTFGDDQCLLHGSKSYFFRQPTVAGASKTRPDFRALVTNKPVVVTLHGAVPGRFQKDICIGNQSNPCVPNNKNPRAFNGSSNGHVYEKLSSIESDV
Description: cRNA was synthesized from linearized template cDNA for rat glutamate receptor subunits according to manufacturer specifications (Ambion). Quality of synthesized cRNA was assessed by gel electrophoresis, and quantity was estimated by spectroscopy and gel electrophoresis. Stage V and VI oocytes were surgically removed from the ovaries of large, well-fed and healthy Xenopus laevis anesthetized with 3-amino-benzoic acid ethyl ester (3 gm/l) as previously described. Clusters of isolated oocytes were incubated with 292 U/ml Worthington (Freehold, N.J.) type IV collagenase or 1.3 mg/ml collagenase (Life Technologies, Gaithersburg, Md.; 17018-029) for 2 hr in Ca^2+-free solution comprised of (in mM) 115 NaCl, 2.5 KCl, and 10 HEPES, pH 7.5, with slow agitation to remove the follicular cell layer. Oocytes were then washed extensively in the same solution supplemented with 1.8 mM CaCl2 and maintained in Barth's solution comprised of (in mM): 88 NaCl, 1 KCl, 2.4 NaHCO3, 10 HEPES, 0.82 MgSO4, 0.33 Ca(NO3)2, and 0.91 CaCl2 and supplemented with 100 μg/ml gentamycin, 10 μg/ml streptomycin, and 10 μg/ml penicillin. Oocytes were manually defolliculated and injected within 24 hrs of isolation with 3-5 ng of NR1 subunit cRNA and 7-10 ng of NR2 cRNA subunit in a 50 nl volume, or 5-10 ng of AMPA or kainate receptor cRNAs in a 50 nl volume, and incubated in Barth's solution at 18° C. for 1-7 d. Glass injection pipettes had tip sizes ranging from 10-20 microns, and were backfilled with mineral oil.
Two electrode voltage-clamp recordings were made 2-7 days post-injection as previously described. Oocytes were placed in a dual-track plexiglass recording chamber with a single perfusion line that splits in a Y-configuration to perfuse two oocytes. Dual recordings were made at room temperature (23° C.) using two Warner OC725B two-electrode voltage clamp amplifiers, arranged as recommended by the manufacturer. Glass microelectrodes (1-10 Megaohms) were filled with 300 mM KCl (voltage electrode) or 3 M KCl (current electrode). The bath clamps communicated across silver chloride wires placed into each side of the recording chamber, both of which were assumed to be at a reference potential of 0 mV. Oocytes were perfused with a solution comprised of (in mM) 90 NaCl, 1 KCl, 10 HEPES, and 0.5 BaCl2; pH was adjusted by addition of 1-3 M NaOH of HCl. Oocytes were recorded under voltage clamp at −40 mV. Final concentrations for control application of glutamate (50 μM) plus glycine (30 μM) were achieved by adding appropriate volumes from 100 and 30 mM stock solutions, respectively. In addition, 10 μM final EDTA was obtained by adding a 1:1000 dilution of 10 mM EDTA, in order to chelate contaminant divalent ions such as Zn^2+. Concentration-response curves for experimental compounds were obtained by applying in successive fashion maximal glutamate/glycine, followed by glutamate/glycine plus variable concentrations of experimental compounds. Dose response curves consisting of 4 to 8 concentrations were obtained in this manner. The baseline leak current at −40 mV was measured before and after recording, and the full recording linearly corrected for any change in leak current. Oocytes with glutamate-evoked responses smaller than 50 nA were not included in the analysis. The level of inhibition by applied experimental compounds was expressed as a percent of the initial glutamate response, and averaged together across oocytes from a single frog. Each experiment consisted of recordings from 3 to 10 oocytes obtained from a single frog. Results from 3-6 experiments were pooled, and the average percent responses at antagonist concentrations were fitted by the equation,
Percent Response=(100−minimum)/(1+([conc]/IC50)^nH)+minimum […]

[2] = Plasma half-life (i.v./i.p. pharmacokinetics, Table 23); assay type: in vivo, Rats; conditions: rat; for AUC(0-t): read-out: AUC (0-last h) i.v. XMPK; for Cmax at 30 min: 30 m
Description: Animals were fasted overnight prior to dose administration and food returned to the animals two hours after dosing. Following IV dosing, blood samples (ca 200 μL) were collected into separate tubes containing anticoagulant (K-EDTA) via the orbital plexus at various times post administration. Plasma samples were prepared immediately after collection by centrifugation for ten minutes using a tabletop centrifuge, and stored at −80° C. Brain tissue was weighed, homogenized on ice in 50 mM phosphate buffer (2 ml per brain) and the homogenate stored at −80° C. Plasma and brain homogenate samples were extracted by the addition of 5 volumes of cold acetonitrile, mixed well by vortexing and centrifuged at 4000 rpm for 15 minutes. The supernatant fractions were analyzed by LC-MS/MS operating in multiple reaction monitoring mode (MRM). The amount of parent compound in each sample was calculated by comparing the response of the analyte in the sample to that of a standard curve.

[3] = Oral absorption (p.o. pharmacokinetics, Table 25); assay type: in vivo, Rats; conditions: rat, plasma; for bioavailability: read-out: % Absorbed (% F); for AUC(0-t): read-out: AUC (0-last h) p.o.
[4] = pH 6.9, Table 21, read-out: IC50 at pH 6.9
[5] = pH 7.6, Table 21, read-out: IC50 at pH 7.6
[6] = iv, 1 mg/kg, 1 MPK, 0-4 hr i.v.
[7] = iv, 1 mg/kg, 1 MPK, 0-6 hr i.v.

Structure (SMILES): CS(=O)(=O)Nc1ccc(CCC(=O)NCCNc2ccc(Cl)c(Cl)c2)cc1
- IC50 [1, 4]: 30 nM
- IC50 [1, 5]: 55 nM

Structure (SMILES): CS(=O)(=O)Nc1ccc(CCCNCCNc2ccc(Cl)c(Cl)c2)cc1
- IC50 [1, 4]: 2 nM
- IC50 [1, 5]: 21 nM

Structure (SMILES): CS(=O)(=O)Nc1ccc(CCCN2CCN(c3ccc(Cl)c(Cl)c3)C2=O)cc1
- IC50 [1, 4]: 160 nM
- IC50 [1, 5]: 809 nM

Structure (SMILES): O=C(COc1ccc2[nH]c(=O)oc2c1)NCCNc1ccc(Cl)c(Cl)c1
- IC50 [1, 4]: 80 nM
- IC50 [1, 5]: 150 nM

Structure (SMILES): CS(=O)(=O)Nc1ccc(CCC(=O)NC/C=C/c2ccc(Cl)c(Cl)c2)cc1
- IC50 [1, 4]: 10 nM
- IC50 [1, 5]: 70 nM

Structure (SMILES): O=C(COc1ccc(O)cc1)NCCNc1ccc(Cl)c(Cl)c1
- IC50 [1, 4]: 280 nM
- IC50 [1, 5]: 515 nM

Structure (SMILES): O=C(CCc1ccc(O)cc1)NCCNc1ccc(Cl)c(Cl)c1
- IC50 [1, 4]: 210 nM
- IC50 [1, 5]: 339 nM

Structure (SMILES): O[C@H](COc1ccc2[nH]ccc2c1)CN1CCN(c2ccc(Cl)cc2)CC1
- IC50 ([1]; pH 6.9, Table 22, read-out: IC50 pH 6.9): > 10000 nM
- IC50 ([1]; pH 7.6, Table 22, read-out: IC50 pH 7.6): > 10000 nM

Structure (SMILES): CS(=O)(=O)Nc1ccc(OC[C@@H](O)CN2CCN(c3ccc(Cl)c(Cl)c3)CC2)cc1
- Cmax ([2]; iv, 3 mg/kg, 3MPK i.v.): 1070 ng/mL
- AUC(0-t) ([2]; iv, 3 mg/kg, 3MPK, 0-4 hr i.v.): 2350 ng·h/mL

Structure (SMILES): NC(=O)Nc1ccc(OC[C@@H](O)CN2CCN(c3ccc(Cl)cc3)CC2)cc1 [drawing 755]
- IC50 ([1]; pH 6.9, Table 20, read-out: IC50 at pH 6.9): 46 nM
- IC50 ([1]; pH 7.6, Table 20, read-out: IC50 at pH 7.6): 452 nM

Structure (SMILES): NC(=O)Nc1ccc(OC[C@@H](O)CN2CCN(c3ccc(Cl)cc3)CC2)cc1 [drawing 786]
- Cmax ([2]; iv, 1 mg/kg, 1 MPK i.v.): 252 ng/mL
- AUC(0-t) [2, 6]: 1030 ng·h/mL

Structure (SMILES): O=c1[nH]c2ccc(OC[C@@H](O)CN3CCN(c4ccc(Cl)cc4)CC3)cc2o1 [drawing 792]
- Cmax ([2]; iv, 1 mg/kg, 1 MPK i.v.): 288 ng/mL
- AUC(0-t) [2, 6]: 217 ng·h/mL

Structure (SMILES): NC(=O)Nc1ccc(OC[C@@H](O)CN2CCN(c3ccc(Cl)cc3)CC2)cc1 [drawing 810]
- Cmax ([3]; 10 mg/kg, 10 MPK, 0-8 hr p.o.): 1560 ng/mL
- Tmax ([3]; 10 mg/kg, 10 MPK, 0-8 hr p.o.): 2.67 h
- bioavailability ([3]; 10 mg/kg, 10 MPK, 0-8 hr p.o.): 146%
- AUC(0-t) ([3]; 10 mg/kg, 10 MPK, 0-8 hr p.o.): 8450 ng·h/mL

Structure (SMILES): O=c1[nH]c2ccc(OC[C@@H](O)CN3CCN(c4ccc(Cl)cc4)CC3)cc2o1 [drawing 814]
- Cmax ([3]; 10 mg/kg, 10 MPK, 0-8 hr p.o.): 30.6 ng/mL
- Tmax ([3]; 10 mg/kg, 10 MPK, 0-8 hr p.o.): 8 h
- bioavailability ([3]; 10 mg/kg, 10 MPK, 0-8 hr p.o.): 6.2%
- AUC(0-t) ([3]; 10 mg/kg, 10 MPK, 0-8 hr p.o.): 132 ng·h/mL

Second part, the compound after the results:

- IC50 [1, 4]: 41 nM
- IC50 [1, 5]: 45 nM
Structure (SMILES): O=C(COc1ccc2[nH]c(=O)oc2c1)N1CCN(c2ccc(Cl)c(Cl)c2)CC1 [drawing 768]

- Cmax ([2]; iv, 1 mg/kg, 1 MPK i.v.): 241 ng/mL
- AUC(0-t) [2, 7]: 452 ng·h/mL
Structure (SMILES): O=c1[nH]c2ccc(OC[C@@H](O)CN3CCN(c4ccc(F)c(F)c4)CC3)cc2[nH]1 [drawing 787]

- Cmax at 30 min ([2]; ip, 60 mg/kg, 60 MPK): 13400 ng/mL
- Cmax at 2 hr ([2]; ip, 60 mg/kg, 60 MPK, 2 hr): 13100 ng/mL
Structure (SMILES): CS(=O)(=O)Nc1ccc(OC[C@@H](O)CN2CCN(c3ccc(F)c(F)c3)CC2)cc1 [drawing 789]

- Cmax ([2]; iv, 1 mg/kg, 1 MPK i.v.): 464 ng/mL
- AUC(0-t) [2, 7]: 347 ng·h/mL
Structure (SMILES): Cc1ccc(N2CCN(C[C@H](O)COc3ccc4c(c3)CCC(=O)N4)CC2)cc1 [drawing 790]

- Cmax ([2]; iv, 1 mg/kg, 1 MPK i.v.): 193 ng/mL
- AUC(0-t) [2, 6]: 187 ng·h/mL
Structure (SMILES): Oc1ccc(OC[C@@H](O)CN2CCN(c3ccc(Cl)cc3)CC2)cc1 [drawing 791]

- Cmax ([2]; iv, 1 mg/kg, 1 MPK i.v.): 568 ng/mL
- AUC(0-t) [2, 6]: 364 ng·h/mL
Structure (SMILES): Cc1ccc(N2CCN(C[C@H](O)COc3ccc4[nH]c(=O)oc4c3)CC2)cc1 [drawing 793]

- Cmax ([2]; iv, 1 mg/kg, 1 MPK i.v.): 715 ng/mL
- AUC(0-t) [2, 7]: 787 ng·h/mL
Structure (SMILES): NC(=O)Nc1ccc(OC[C@@H](O)CN2CCN(c3ccc(Cl)cc3)C2=O)cc1 [drawing 794]

- Cmax at 30 min ([2]; iv, 3 mg/kg, 3 MPK i.v.): 377 ng/mL
Structure (SMILES): O=C1N(C[C@H](O)COc2ccc(O)cc2)CCN1c1ccc(Cl)cc1 [drawing 795]

- Cmax ([2]; iv, 1 mg/kg, 1 MPK i.v.): 576 ng/mL
- AUC(0-t) [2, 7]: 1100 ng·h/mL
Structure (SMILES): O=C(COc1ccc2[nH]c(=O)[nH]c2c1)N1CCN(c2ccc(Cl)c(Cl)c2)CC1 [drawing 796]

- Cmax at 15 min ([2]; ip, 10 mg/kg, 10 MPK i.p., 15 m): 960 ng/mL
Structure (SMILES): O=C(COc1ccc2[nH]c(=O)oc2c1)N1CCN(c2ccc(Cl)c(Cl)c2)CC1 [drawing 797]

- Cmax at 30 min ([2]; iv, 3 mg/kg, 3 MPK i.v.): 398 ng/mL
Structure (SMILES): O=c1[nH]c2ccc(OC[C@@H](O)CSc3nc4cc(Cl)c(Cl)cc4[nH]3)cc2o1 [drawing 798]

- Cmax at 30 min ([2]; iv, 3 mg/kg, 3 MPK i.v.): 413 ng/mL
Structure (SMILES): Oc1ccc(OC[C@@H](O)CSc2nc3cc(Cl)c(Cl)cc3[nH]2)cc1 [drawing 799]

- Cmax ([3]; 5 mg/kg, 5 MPK, 0-6 hr p.o.): 558 ng/mL
- Tmax ([3]; 5 mg/kg, 5 MPK, 0-6 hr p.o.): 0.5 h
- bioavailability ([3]; 5 mg/kg, 5 MPK, 0-6 hr p.o.): 82.2%
- AUC(0-t) ([3]; 5 mg/kg, 5 MPK, 0-6 hr p.o.): 1860 ng·h/mL
Structure (SMILES): O=c1[nH]c2ccc(OC[C@@H](O)CN3CCN(c4ccc(F)c(F)c4)CC3)cc2[nH]1 [drawing 811]

- Cmax ([3]; 5 mg/kg, 5 MPK, 0-6 hr p.o.): 407 ng/mL
- Tmax ([3]; 5 mg/kg, 5 MPK, 0-6 hr p.o.): 0.33 h
- bioavailability ([3]; 5 mg/kg, 5 MPK, 0-6 hr p.o.): 31.6%
- AUC(0-t) ([3]; 5 mg/kg, 5 MPK, 0-6 hr p.o.): 549 ng·h/mL
Structure (SMILES): Cc1ccc(N2CCN(C[C@H](O)COc3ccc4c(c3)CCC(=O)N4)CC2)cc1 [drawing 812]

- Cmax ([3]; 10 mg/kg, 10 MPK, 0-8 hr p.o.): 57.8 ng/mL
- Tmax ([3]; 10 mg/kg, 10 MPK, 0-8 hr p.o.): 6.7 h
- bioavailability ([3]; 10 mg/kg, 10 MPK, 0-8 hr p.o.): 7.9%
- AUC(0-t) ([3]; 10 mg/kg, 10 MPK, 0-8 hr p.o.): 284 ng·h/mL
Structure (SMILES): Cc1ccc(N2CCN(C[C@H](O)COc3ccc4[nH]c(=O)oc4c3)CC2)cc1 [drawing 813]

- Cmax ([3]; 10 mg/kg, 10 MPK, 0-8 hr p.o.): 10.2 ng/mL
- Tmax ([3]; 10 mg/kg, 10 MPK, 0-8 hr p.o.): 5.3 h
- bioavailability ([3]; 10 mg/kg, 10 MPK, 0-8 hr p.o.): 3.3%
- AUC(0-t) ([3]; 10 mg/kg, 10 MPK, 0-8 hr p.o.): 56.4 ng·h/mL
Structure (SMILES): Oc1ccc(OC[C@@H](O)CN2CCN(c3ccc(Cl)cc3)CC2)cc1 [drawing 815]
